pKd: −log10 of the molar value. Entries after “also recorded” stand apart in the source; their conditions may differ.
What was measured:
tobacco = experiment: Growth of tobacco (shoot and root fresh weight, Day 25); details: 5 μM irrigated twice
HERK1‐CD = experiment: HERK1-CD kinase activity (autophosphorylation); format: biochemical, Arabidopsis thaliana; details: 5 μM
[1] = test system: ROS in Col‐0 and fer‐4 roots; experiment: ROS detection in plant roots (H2DCF-DA fluorescence); details: 5 μM for 15 min, vs DMSO and lapatinib
CERK1 = experiment: CERK1-CD kinase activity; format: biochemical, Arabidopsis
Text: (§1) Fig. S10. […] (a) Effects of FER inhibitors on the kinase activity of the Arabidopsis receptor kinase PEPR1 and CERK1 cytoplasmic domains (CDs). […] AT1G73080. […] AT3G21630. DMSO (0.05%; v/v) was used as a negative control. The data are shown as the means ± SDs (n = 4). The assay was repeated three times with similar results. ***, […]) Protein purification of PEPR1-CD and CERK1-CD. […] In (c and d), the data are presented as the means ± SDs of three biological replicates.

Ralstonia solanacearum [2] = format: in vivo; details: Arabidopsis seedlings pretreated with 5 μM, 4 days after inoculation
PER5 = details: 5 μM for 24 h, confocal microscopy
THE1‐CD = experiment: THE1-CD kinase activity (autophosphorylation); format: biochemical, Arabidopsis thaliana; details: 5 μM
Meloidogyne incognita [3] = experiment: Rice root-knot nematode disease, preventive root treatment; format: in vivo; details: roots pretreated twice with 3 mL of 5 μM, 800 pre-J2s
PEPR1 = experiment: PEPR1-CD kinase activity; format: biochemical, Arabidopsis
Text: as §1

FER‐CD = FER‐CD (Arabidopsis thaliana, UniProt Q9SCZ4); experiment: biochemical
Ralstonia solanacearum [4] = format: in vivo, tomato; details: roots pretreated twice with 3 mL of 5 μM
Ralstonia solanacearum [5] = format: in vivo, tobacco; details: roots pretreated twice with 3 mL of 5 μM
Ralstonia solanacearum [6] = format: in vivo, tobacco; details: 5 μM irrigated twice two days after inoculation
[7] = test system: FER cytoplasmic domain (FER‐CD); experiment: FER-CD kinase activity (autophosphorylation), high-throughput screening, Kinase-Lumi luminescent ATP consumption; format: biochemical, Arabidopsis thaliana; details: in vitro autophosphorylation
[8] = test system: Arabidopsis Col‐0 and fer‐4 seedlings; experiment: Growth of Arabidopsis seedlings (root length, shoot fresh weight); details: 5 μM for 3 days, vs ddH2O (mock) and lapatinib
FRK1 = details: 5 μM for 24 h, confocal microscopy
Meloidogyne incognita [9] = experiment: Established rice root-knot nematode disease (inhibitor applied after inoculation); format: in vivo; details: irrigated three days after inoculation

Sequence of FER‐CD (Q9SCZ4 469-895): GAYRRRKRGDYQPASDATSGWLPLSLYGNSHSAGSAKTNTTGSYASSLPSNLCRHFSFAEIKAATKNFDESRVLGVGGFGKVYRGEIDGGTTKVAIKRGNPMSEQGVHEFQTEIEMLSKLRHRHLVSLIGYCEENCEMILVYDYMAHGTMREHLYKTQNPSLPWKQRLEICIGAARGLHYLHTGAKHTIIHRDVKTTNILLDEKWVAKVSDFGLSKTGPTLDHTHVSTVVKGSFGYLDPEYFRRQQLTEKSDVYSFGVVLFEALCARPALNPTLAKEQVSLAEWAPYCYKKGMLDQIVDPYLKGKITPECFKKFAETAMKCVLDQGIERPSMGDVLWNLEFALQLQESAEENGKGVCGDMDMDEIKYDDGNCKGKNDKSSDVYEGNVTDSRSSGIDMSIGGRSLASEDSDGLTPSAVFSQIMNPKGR

SMILES | Growth (biomass) of tobacco shoots and roots (tobacco) | Inhibition rate of HERK1-CD kinase activity (HERK1‐CD) | Production of ROS in Col-0 roots [1] | Effect on CERK1 kinase activity (CERK1) | Cotyledon bleaching caused by R. solanacearum (Ralstonia solanacearum [2]) | Expression of PER5 in roots (PER5) | Inhibition rate of THE1-CD kinase activity (THE1‐CD) | Control of rice root-knot nematode disease (Meloidogyne incognita [3]) | Effect on PEPR1 kinase activity (PEPR1) | pKd (FER‐CD) | Control of tomato bacterial wilt (Ralstonia solanacearum [4]) | Control of tobacco bacterial wilt (Ralstonia solanacearum [5]) | Effect on established tobacco bacterial wilt (Ralstonia solanacearum [6]) | Effect on FER kinase activity [7] | Growth of roots and shoots of Arabidopsis Col-0 seedlings [8] | Expression of FRK1 in roots (FRK1) | Effect on established rice root-knot nematode disease (Meloidogyne incognita [9])
O=C(O)c1cc(N(Cc2ccccc2O)Cc2cc(O)ccc2O)ccc1O [Lavendustin A] | significantly improved the growth of tobacco shoots and roots | lower than 55% | significantly increased the production of ROS | did not affect the kinase activity | effectively prevented the cotyledon bleaching | did not affect the expression levels | lower than 55% | better preventive effects than staurosporine; also recorded: alleviated soil‐borne diseases | did not affect the kinase activity | 5.57 | best control effect; also recorded: alleviated soil‐borne diseases | alleviated tobacco bacterial wilt; also recorded: alleviated soil‐borne diseases | could not completely prevent the occurrence of the diseases or cure already diseased plants | inhibited the kinase activity of FER | significantly promoted root and shoot growth | did not affect the expression levels | could not completely prevent the occurrence of the diseases or cure already diseased plants
c1nc2nc(Nc3ccc(N4CCOCC4)cc3)nc(NC3CCCCC3)c2[nH]1 [Reversine] | did not observably affect the biomass | lower than 55% | significantly increased the production of ROS | did not affect the kinase activity | effectively prevented the cotyledon bleaching | did not affect the expression levels | lower than 55% | better preventive effects than staurosporine; also recorded: alleviated soil‐borne diseases | did not affect the kinase activity | 5.75 | alleviated soil‐borne diseases | alleviated tobacco bacterial wilt; also recorded: alleviated soil‐borne diseases | could not completely prevent the occurrence of the diseases or cure already diseased plants | inhibited the kinase activity of FER | did not affect the growth of roots and shoots | did not affect the expression levels | could not completely prevent the occurrence of the diseases or cure already diseased plants

Source: publication PMC9829398 (Plant Biotechnology Journal, 2022)
